Results: patent publication US20090130763A1, “Method of Controlling Degradation of Protein by Tetracycline Antibiotic” (priority 2005, published 2009)
Residues, ends and D or L forms follow the SMILES beside them. *: point of attachment. Cbz = O=C(OCc1ccccc1)*

Test system: proteasome
Assay: Incubation of TetR-EGFP-expressed cells with proteasome inhibitor, fluorescence by flow cytometer
Settings: variant TetR-EGFP-expressed cells, 100 μg/ml, 12 hours (FIG. 1C)
Protocol: The cells were treated with trypsin and then recovered. Fluorescence-positive cell rates and the intensity of fluorescence per cell were analyzed by a flow cytometer (BD, FACSCalibur).
These cells were incubated for 12 hours in the presence of 100 μg/ml of proteasome inhibitor MG132.

For `CC(C)C[C@@H](C=O)NC(=O)[C@H](CC(C)C)NC(=O)[C@H](CC(C)C)NC(=O)OCc1ccccc1` [MG132] (Cbz-Leu-Leu-Leu-aldehyde), the change in fluorescence was “marked increase”.
